Results reported in PMC9104013, “Role of Polyamine-Induced Dimerization of Antizyme in Its Cellular Functions” (International Journal of Molecular Sciences, 2022).

How the values were obtained:
[1] = tested on: OAZ1-overexpressing DU145 cells; assay: Uptake of Spd and its analogues in OAZ1-overexpressing DU145 cells; assay type: cell-based; conditions: DOX 250 ng/mL 24 h, compounds 100 µM, 6 h
Protocol: Figure 3 2-MeSpd is the weakest inducer of OAZ1 synthesis and the weakest downregulator of ODC in DU145 cells. (A) Uptake of Spd and its analogues in CHX-treated DU145 cells. After 2 h preincubation with CHX (100 µg/mL), the compounds (100 µM) were added, and incubation continued for 4 h before the analysis of the intracellular analogue concentration. (B) Uptake of Spd and its analogues in OAZ1-overexpressing DU145 cells. OAZ1 was induced by 24 h preincubation with DOX (250 ng/mL). The compounds (100 µM) were added for further 6 h before the analysis of intracellular analogue concentration. (C) Effect of Spd and the analogues on OAZ1 protein levels in DU145 cells. The cells were incubated for 4 h with 100 μM analogues in the presence of the proteasomal inhibitor, MG132 (25 μM). (D) Effect of Spd and the analogues on ODC activity in DU145 cells. […]
Polyamines were measured with HPLC according to the published method. Acid-precipitated pellets were dissolved to 0.1 M NaOH, and the amount of DNA was measured using the PicoGreen reagent (Invitrogen) according to manufacturer’s instructions using dilutions of calf thymus DNA (Sigma-Aldrich) as standard curve. Protein concentrations were measured using Bio-Rad protein kit with dilutions of bovine serum albumin (Bio-Rad, Hercules, CA, USA) as standards. ODC activities were measured from the cytosolic fractions as described earlier. […]

[2] = tested on: polyamine uptake in OAZ1-overexpressing DU145 cells; assay: [14C]-Put and -Spd uptake in OAZ1-overexpressing DU145 cells; assay type: cell-based; conditions: DFMO 5 mM 3 days, DOX 1 μg/mL 2 days, analogue 100 μM 4 h with APCHA 50 μM, AG 1 mM; 20 min uptake
Protocol: OAZ1-overexpressing DU145 cells were plated onto 6-well plates and incubated overnight. The cells were first treated with DFMO (5 mM) for 3 days, after which DOX (1 μg/mL) was added for further 2 days to induce OAZ1 overexpression. Then, AG (1 mM), APCHA (50 μM), and Spd/analogue (100 μM) were added for 4 h. The plates were washed with warm DMEM and incubated for 20 min in [^14C]-Put or [^14C]-Spd labeling mix (10 μM Put/Spd, specific activity 25 mCi/mmol, in DMEM). The plates were washed twice with ice-cold PBS and lysed to 0.5 mL of 0.1 M NaOH. An aliquot was taken for measurement of ^14C radioactivity, and the counts were normalized to total protein in the sample.

SMILES: CC(CN)CNCCCCN (stereo not drawn) [2-MeSpd]
- Uptake upon DOX-induced expression of OAZ1 [1]: reduced the uptake
- Downregulation of [^14C]-Put uptake [2]: weakest downregulation
- Downregulation of [^14C]-Spd uptake [2]: weakest downregulation
